From patent EP0339681B1, “Antitumor antibiotic substance” (MEIJI SEIKA KAISHA LTD., priority 1988, dated 1989)
Values after ≈ are worked out from the molar mass of the structure shown.

Legend:
infection = settings: mouse, in vivo; cited from earlier work
P-388 tumor cells = assay: Therapeutic test on mice with intraperitoneally transplanted P-388 tumor cells; type: in vivo, mouse; settings: intraperitoneally once a day for two days
Description: To evaluate antitumor activity of the test compounds, the following therapeutic test was conducted.
P-388 tumor cells were transplanted into the abdominal cavity of a mouse. A test compound was intraperitoneally administered to the animal once a day for two days. The effect thus observed is expressed in ILS (%). [formula]

[1] = test system: P-388 mouse leukemia cells; assay: Cytotoxic effect: 50% growth inhibition of P-388 cells; settings: P388, 72 h, read-out: IC₅₀

SMILES	therapeutic effect on infection (infection)	IC50 [1] [µg/mL]	other results
COC(=O)C1(C)Nc2c(O)cc3c(c2C1=O)C(CO)CN3C(=O)c1cc2cc(OC)c(OC)c(OC)c2[nH]1 (stereo not drawn)	therapeutic effect on infection		
COC(=O)C1(C)Nc2c(OS(C)(=O)=O)cc3c(c2C1=O)C(CO)CN3C(=O)c1cc2cc(OC)c(OC)c(OC)c2[nH]1 (stereo not drawn) [Compound 2]		0.004 (≈ 0.00663 µM)	ILS (%) (P-388 tumor cells; Dose 0.25 mg/kg): 15%; ILS (%) (P-388 tumor cells; Dose 0.5 mg/kg): 40%; ILS (%) (P-388 tumor cells; Dose 1 mg/kg): 40%
COC(=O)C1(C)Nc2c(OS(C)(=O)=O)cc3c(c2C1=O)C(COS(C)(=O)=O)CN3C(=O)c1cc2cc(OC)c(OC)c(OC)c2[nH]1 (stereo not drawn) [Compound 1]		0.06 (≈ 0.088 µM)	ILS (%) (P-388 tumor cells; Dose 2.4 mg/kg): 40%; ILS (%) (P-388 tumor cells; Dose 7 mg/kg): 40%; ILS (%) (P-388 tumor cells; Dose 21 mg/kg): 54%
COC(=O)C1(C)Nc2c(O)cc3c(c2C1=O)C(CCl)CN3C(=O)c1cc2cc(OC)c(OC)c(OC)c2[nH]1 (stereo not drawn) [SF2582A]	therapeutic effect on infection		
COC(=O)C1(C)Nc2c(O)cc3c(c2C1=O)CC(Cl)CN3C(=O)c1cc2cc(OC)c(OC)c(OC)c2[nH]1 (stereo not drawn) [SF2582B]	therapeutic effect on infection		
COC(=O)C1(C)Nc2c(OS(=O)(=O)c3ccc(C)cc3)cc3c(c2C1=O)C(CO)CN3C(=O)c1cc2cc(OC)c(OC)c(OC)c2[nH]1 (stereo not drawn) [Compound 3]		2.5 (≈ 3.68 µM)	
